According to patent US8524899B2, “Alternative heterocycles for DNA recognition” (California Institute of Technology, priority 2003, dated 2013):

Tests used:
[1] = system: 32P-3′-labeled EcoRI/PvuII restriction fragment of plasmid pDR1 (sites 5′-TGTCTA-3′, 5′-TGTTTA-3′, 5′-TGTATA-3′, 5′-TGTGTA-3′); test: Quantitative DNase I footprint titration on pDR1 restriction fragment; assay type: binding
Protocol: FIG. 4 illustrates the equilibrium association constants Ka[M^−1] for Polyamide Oligomers A-C, N, Q, and P. The reported association constants are the average values obtained from three DNase I footprint titration experiments, with the standard deviation for each data set indicated in the experiments. Assays were carried out at 22° C. at pH 7.0 in the presence of 10 mM Tris-HCl, 10 mM KCl, 10 mM MgCl2, and 5 mM CaCl2 with an equilibration time of 12 h. Specificities are give in brackets under the Ka values and calculated as Ka (match)/Ka (mismatch).
To examine whether an imidazo[4,5-b]pyridine unit Ip can replace a five-membered imidazole ring Im within an eight-ring hairpin polyamide regarding DNA binding affinity and specificity, polyamide oligomer A and its related all five-membered ring hairpin oligomer N were evaluated by DNase I footprint titrations under identical conditions. Quantitative DNase I footprint titration experiments (10 mM Tris-HCl, 10 mM KCl, 10 mM MgCl2, 5 mM CaCl2, pH 7.0, 22° C., equilibration time: 12 h) were performed on a ^32P-3′-labeled EcoRI/PvuII restriction fragment of plasmid pDR1 0 (FIG. 2). This DNA fragment contains four 6-base pair binding sites which differ at one position, 5′-TGTCTA-3′,5′-TGTTTA-3′,5′-TGTATA-3′, and 5′-TGTGTA-3′. The latter one was regarded as the possible match site having a G•C base pair under the Ip/Py or Im/Py pair, respectively.
Construction of plasmid DNA. The plasmid pDR1 was constructed by hybridization of the two oligonucleotides 5′-GATCAGGCTGTC-[…]-GCTGCTGTTTATGGACG-GCTGCTGTATATGGACGG-CTGGGCGA-3′ (SEQ ID NO:1) and 5′-AGCTTCGC-[…]-[…]-3′ (SEQ ID NO:2) followed by ligation into the BamHI/HinDIII restriction fragment of pUC19 using T4 DNA ligase. The resultant plasmid was then used to transform E. coli XL-1 Blue Supercompetent cells. Ampicillin-resistant white colonies were selected from 25 mL Luria-Bertani agar plates containing […] ampicillin, treated with XGAL and IPTG solutions and grown overnight at 37° C. Cells were harvested after overnight growth at 37° C. Large-scale plasmid purification was performed with Qiagen, purification kits. The presence of the desired insert was determined by dideoxy sequencing. DNA concentrations were determined at 260 nm using the relationship 1 OD unit) 50 μg/mL duplex DNA.
Preparation of 3′-End-Labeled DNA Restriction Fragments. The plasmid pDR1 was linearized with EcoRI and PVuII and treated with the Klenow fragment of DNA […], [R-^32P]-dATP, and [R-^32P]-TTP for 3′-end labeling. The labeled 3′-fragment was purified on a 7% nondenaturing polyacrylamide gel (5% cross-linkage) and the desired 284 base pair band isolated after visualization by autoradiography. The DNA was precipitated with 2-propanol, the pellet washed, lyophilized, and resuspended in RNase-free H2O. Chemical sequencing reactions were performed according to published protocols. (Troschütz, R.; Lückel, A. Arch. Pharm., 325, 617-619, 1992.)
DNase I Footprinting. All reactions were carried out in a volume of 400 μL according to published procedures. Quantitation by storage phosphor autoradiography and determination of equilibrium association constants were as previously described. (Trauger, J. W.; Dervan, P. B. Methods Enzymol., 340, 450-466, 2001.)

Stability at acidic pH = assay type: physicochemical
[2] = system: EcoRI/PvuII restriction fragment of plasmid pPWF2 (5′-TGRACA-3′); test: Quantitative DNase I footprint titration, R•S position, plasmid pPWF2; assay type: binding
From the text: FIG. 9 illustrates the equilibrium association constants Ka[M^−1] and specificities for polyamide oligomers D-F, R, S, and V on plasmids pPWF2 and pCAB1 (R•S position).
When replacing PyPy, PyIm, and PyHp dimers with BiPy (as in oligomer D), BiIm (as in oligomer E), and BiHp constructs (as in oligomer F), respectively, the question arises whether a) the benzimidazole ring is capable of cooperating with the imidazole ring on the opposite strand of the hairpin polyamide to specifically recognize a C•G base pair according to the binding model and the general pairing rules, and b) whether the steric and electronic peculiarities of the benzimidazole ring disturb the binding ability of the adjacent heterocycle. In order to address this question for the given polyamide design, the recognition behavior of the benzimidazole-containing polyamides was probed in two of the six base pair positions R•S and X•Y of the recognition sequence (5′-TGRACA-3′ and 5′-TGGXCA-3′ for oligomers D and F; 5′-TGRCAA-3′ and 5′-TGGXAA-3′ for oligomer E; FIG. 6) and compared with the DNA-binding ability of the related all five-membered oligomers R, S, and V at the same recognition sequences.
(§1) Evaluation of the DNA recognition properties of the new ligands oligomers D, E, and F at the imidazole/benzimidazole position (referred to as R•S position) should reveal the sequence preference of the benzimidazole ring. The binding properties at the neighboring ring position (referred to as X•Y position) were expected to disclose whether the recognition capabilities of the adjacent internal five-membered ring are disturbed by the benzimidazole moiety. To examine the consequences of the ring replacement for DNA binding in terms of affinity and specificity, the benzimidazole-containing hairpin polyamides oligomers D, E, and F were evaluated by quantitative DNase I footprint titrations and the results compared to those from related oligomers R, S, and V, which were investigated under identical conditions. Quantitative DNase I footprint titration experiments (10 mm Tris-HCl, 10 mm KCl, 10 mm MgCl2, 5 mm CaCl2, pH 7.0, 22° C., equilibration time: 12 h) were performed on ^32P-3′-labeled EcoRI/PvuII restriction fragments of plasmids pPWF2 and pCAB1 (to probe the R•S position, FIG. 7); and pAU2 and pCAB2 (to probe the X•Y position, FIG. 8). Equilibrium association constants (Ka) for the polyamide oligomers at the binding sites of interest were determined as described above in Example 3.

[3] = system: EcoRI/PvuII restriction fragment of plasmid pAU2 (5′-TGGXCA-3′); test: Quantitative DNase I footprint titration, X•Y position, plasmid pAU2; assay type: binding; details: match and mismatch sites
From the text: FIG. 10 illustrates the equilibrium association constants Ka[M^−1] and specificities for polyamide oligomers D-F, R, S, and V on plasmids pAU2 and pCAB2 (X•Y position). […]
as §1, with “The binding properties at the neighboring ring position (referred to as X•Y position) were expected to disclose whether the recognition capabilities of the adjacent internal five-membered ring are disturbed by the benzimidazole moiety.” left out

5′-AGWWCT-3′ (W=A, T) = test: DNase I footprint titration, multiple Hz/Py pairs; assay type: binding
Protocol: FIG. 17 is a table showing the association equilibrium constant Ka[M^−1] for polyamide oligomers H and K. The reported association constants are the average values obtained from three DNase I footprint titration experiments, with the standard deviation given in parenthesis. Assays were carried out at 22° C. at pH 7.0 in the presence of 10 mM Tris-HCl, 10 mM KCl, 10 mM MgCl2, and 5 mM CaCl2 at pH 7.0.
For polyamides Im-Hz-Py-Py-γ-Im-Hz-Py-Py-β-Dp (oligomer H) and Im-Py-Hz-Py-γ-Im-Py-Hz-Py-β-Dp (oligomer K) the ability of multiple Hz/Py pairs to distinguish poly A,T sequences was tested by varying two DNA base pairs across from the Hz/Py and Py/Hz pairs (bolded in the sequences listed above) within the parent-sequence context, 5′-AGWWCT-3′, (W=A, T) and comparing the relative affinities of the resulting complexes (FIG. 16). Equilibrium association constants (Ka) for polyamide oligomers containing multiple Hp/Py pairs have been reported and are included for comparison with values presented here (FIG. 17). […] The recognition profiles of polyamide oligomers containing multiple Hz/Py pairs (oligomers H and K) are similar to those reported for multiple Hp/Py pairs.
Footprinting Experiments.—Plasmids pDHN1 and pDEH10 were constructed and 5′-radiolabeled as previously described. […]

CNC(=O)c1cc(NC(=O)c2cc(NC(=O)c3cc(NC(=O)c4cc(NC(=O)[C@H](N)CCNC(=O)c5cc(NC(=O)c6ccc7nc(-c8cc(NC(=O)c9nccn9C)cn8C)[nH]c7c6O)cn5C)cn4C)cn3C)cn2C)cn1C [B]
selectivity of T•A over A•T ([1]; 5′-TGTTTA-3′ vs A•T site): 18 fold
binding at C•G site ([1]; C•G site (5′-TGTCTA-3′), for Q concentration range up to 200 nM): No binding was observed
lower affinity at G•C mismatch site 5′-TGTGTA-3′ ([1]; relative to match site 5′-TGTTTA-3′): at least 80 fold
equilibrium association constant Ka ([1]; site 5′-TGTTTA-3′ (T•A), pH 7.0, 22° C., equilibration 12 h): 5.7e+08 M⁻¹
stability at acidic pH (Stability at acidic pH): stable

CNC(=O)c1cc(NC(=O)c2ccc3nc(-c4c(O)c(NC(=O)c5nc(NC(=O)[C@H](N)CCNC(=O)c6cc(NC(=O)c7cc(NC(=O)c8nc(NC(=O)c9nccn9C)cn8C)cn7C)cn6C)cn5C)cn4C)[nH]c3c2)cn1C [F]
match site Ka, R•S position ([2]; 5′-TGRACA-3′ match site, pH 7.0, 22° C., 12 h): 2.5e+10 M⁻¹
match site affinity compared with related all five-membered oligomer, R•S position ([2]; D vs R, F vs V): six to seven-fold higher
single base pair mismatch specificities compared with related oligomer, R•S position ([2]; D vs R, F vs V): comparable
binding affinities and specificities compared with related oligomers R, V, X•Y position [3]: same order of magnitude

CN(C)CCCNC(=O)CCNC(=O)c1cc(NC(=O)c2cc(NC(=O)c3ccc4nc(-c5nc(NC(=O)CCCNC(=O)c6cc(NC(=O)c7cc(NC(=O)c8ccc9nc(-c%10nccn%10C)[nH]c9c8O)cn7C)cn6C)cn5C)[nH]c4c3O)cn2C)cn1C [H]
specificity for match sequence 5′-AGTACT-3′ over 5′-AGAACT-3′ and 5′-AGATCT-3′ (5′-AGWWCT-3′ (W=A, T)): greater than 14 fold

CN(C)CCCNC(=O)CCNC(=O)c1cc(NC(=O)c2ccc3nc(-c4cc(NC(=O)c5nc(NC(=O)CCCNC(=O)c6cc(NC(=O)c7ccc8nc(-c9cc(NC(=O)c%10nccn%10C)cn9C)[nH]c8c7O)cn6C)cn5C)cn4C)[nH]c3c2O)cn1C [K]
specificity for match sequence 5′-AGTACT-3′ over 5′-AGAACT-3′ and 5′-AGATCT-3′ (5′-AGWWCT-3′ (W=A, T)): poor site selectivity
